The test deals with JAK2 (Homo sapiens, UniProt O60674). The test is described as follows: JAK2 Tyrosine Kinase Assay. It counts as biochemical. The note with it: list of named compounds; read-out: IC50 in the JAK2 assay. On the procedure:
JAK2 Tyrosine Kinase Assay
The assays were performed in V-bottom 384-well plates. […] The reaction was initiated by the combination of JAK2 with substrates and test compounds. The reaction was incubated at room temperature for 60 min. and terminated by adding 45 μl of 35 mM EDTA to each sample. The reaction mixture was analyzed on the Caliper LabChip 3000 by electrophoretic separation of the fluorescent substrate and phosphorylated product. […] Compounds were dissolved at 10 mM in dimethylsulfoxide (DMSO) and evaluated at eleven concentrations, each in duplicate. IC50 values were derived by non-linear regression analysis

The text below walks through data of US8445676B2, “Pyrrolotriazine kinase inhibitors” (Bristol-Myers Squibb Company, priority 2008, dated 2013).

JAK2, sequence (O60674 whole entry): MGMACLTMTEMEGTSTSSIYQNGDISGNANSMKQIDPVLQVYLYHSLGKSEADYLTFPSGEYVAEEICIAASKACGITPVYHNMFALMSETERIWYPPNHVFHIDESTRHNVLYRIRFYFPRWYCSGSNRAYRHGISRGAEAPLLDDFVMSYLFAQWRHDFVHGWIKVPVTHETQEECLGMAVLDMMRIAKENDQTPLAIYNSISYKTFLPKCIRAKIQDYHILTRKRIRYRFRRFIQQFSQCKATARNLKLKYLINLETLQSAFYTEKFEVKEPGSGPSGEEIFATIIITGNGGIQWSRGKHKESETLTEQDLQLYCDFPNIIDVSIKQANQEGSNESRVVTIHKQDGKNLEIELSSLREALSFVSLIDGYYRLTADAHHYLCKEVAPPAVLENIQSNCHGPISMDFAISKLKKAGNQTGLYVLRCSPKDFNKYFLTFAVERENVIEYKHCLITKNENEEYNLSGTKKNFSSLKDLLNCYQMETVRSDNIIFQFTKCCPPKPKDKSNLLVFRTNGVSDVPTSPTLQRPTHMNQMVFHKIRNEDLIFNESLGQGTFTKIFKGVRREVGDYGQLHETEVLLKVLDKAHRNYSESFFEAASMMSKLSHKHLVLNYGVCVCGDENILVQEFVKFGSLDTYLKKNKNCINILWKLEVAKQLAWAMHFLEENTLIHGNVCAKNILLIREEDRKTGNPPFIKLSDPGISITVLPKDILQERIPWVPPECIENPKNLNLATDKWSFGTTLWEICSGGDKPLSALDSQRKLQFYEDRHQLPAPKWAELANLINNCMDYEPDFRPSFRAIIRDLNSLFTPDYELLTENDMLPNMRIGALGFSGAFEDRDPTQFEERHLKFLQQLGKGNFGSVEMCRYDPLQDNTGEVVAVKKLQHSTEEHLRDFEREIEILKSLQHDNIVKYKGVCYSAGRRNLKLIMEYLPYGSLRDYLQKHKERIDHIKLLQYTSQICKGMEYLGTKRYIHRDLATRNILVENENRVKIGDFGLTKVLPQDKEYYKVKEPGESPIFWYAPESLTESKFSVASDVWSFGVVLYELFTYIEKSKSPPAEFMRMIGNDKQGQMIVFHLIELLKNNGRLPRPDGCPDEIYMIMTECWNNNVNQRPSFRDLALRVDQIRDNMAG

As to `Cc1cc(Nc2nc(N3CCN(C(=O)Cc4ccccc4Br)CC3)nn3cccc23)n[nH]1` [2-(4-((2-bromophenyl)acetyl)-1-piperazinyl)-N-(5-methyl-1H-pyrazol-3-yl)pyrrolo[2,1-f][1,2,4]triazin-4-amine], the IC50 is at most 5 nM.
Take `Cc1cc(Nc2nc(N3CCN(C(=O)c4cccnc4Cl)CC3)nn3cccc23)n[nH]1` [2-(4-((2-chloro-3-pyridinyl)carbonyl)-1-piperazinyl)-N-(5-methyl-1H-pyrazol-3-yl)pyrrolo[2,1-f][1,2,4]triazin-4-amine]: the concentration for half-maximal inhibition (IC50) was at most 5 nM.
To `Cc1cc(Nc2nc(N3CCN(C(=O)Cc4ccccc4Cl)CC3)nn3cccc23)n[nH]1` [2-(4-((2-chlorophenyl)acetyl)-1-piperazinyl)-N-(5-methyl-1H-pyrazol-3-yl)pyrrolo[2,1-f][1,2,4]triazin-4-amine] belongs at most 5 nM.
To `CO[C@@H](C(=O)N1CCN(c2nc(Nc3cc(C)[nH]n3)c3cccn3n2)CC1)c1ccccc1` [2-(4-((2R)-2-methoxy-2-phenylacetyl)-1-piperazinyl)-N-(5-methyl-1H-pyrazol-3-yl)pyrrolo[2,1-f][1,2,4]triazin-4-amine] belongs at most 5 nM; to `Cc1cc(Nc2nc(N3CCN(C(=O)c4sc5ccccc5c4Cl)CC3)nn3cccc23)n[nH]1` [2-(4-((3-chloro-1-benzothiophene-2-yl)carbonyl)-1-piperazinyl)-N-(5-methyl-1H-pyrazol-3-yl)pyrrolo[2,1-f][1,2,4]triazin-4-amine], at most 5 nM.
The result for `Cc1cc(Nc2nc(N3CCN(C(=O)Cc4cccc(Cl)c4)CC3)nn3cccc23)n[nH]1` [2-(4-((3-chlorophenyl)acetyl)-1-piperazinyl)-N-(5-methyl-1H-pyrazol-3-yl)pyrrolo[2,1-f][1,2,4]triazin-4-amine] reads at most 5 nM; that for `Cc1cc(Nc2nc(N3CCN(C(=O)Cc4cccc(F)c4)CC3)nn3cccc23)n[nH]1` [2-(4-((3-fluorophenyl)acetyl)-1-piperazinyl)-N-(5-methyl-1H-pyrazol-3-yl)pyrrolo[2,1-f][1,2,4]triazin-4-amine], at most 5 nM.
With `Cc1cccc(CC(=O)N2CCN(c3nc(Nc4cc(C)[nH]n4)c4cccn4n3)CC2)c1` [2-(4-((3-methylphenyl)acetyl)-1-piperazinyl)-N-(5-methyl-1H-pyrazol-3-yl)pyrrolo[2,1-f][1,2,4]triazin-4-amine], the concentration for half-maximal inhibition (IC50) was at most 5 nM.
For the compound `Cc1cc(Nc2nc(N3CCN(C(=O)Cc4ccc(Cl)cc4F)CC3)nn3cccc23)n[nH]1` [2-(4-((4-chloro-2-fluorophenyl)acetyl)-1-piperazinyl)-N-(5-methyl-1H-pyrazol-3-yl)pyrrolo[2,1-f][1,2,4]triazin-4-amine], the concentration for half-maximal inhibition (IC50) was at most 5 nM.
To `CCOc1cc(F)c(CC(=O)N2CCN(c3nc(Nc4cc(C)[nH]n4)c4cccn4n3)CC2)c(F)c1` [2-(4-((4-ethoxy-2,6-difluorophenyl)acetyl)-1-piperazinyl)-N-(5-methyl-1H-pyrazol-3-yl)pyrrolo[2,1-f][1,2,4]triazin-4-amine] belongs at most 5 nM.
For the compound `COc1ccc(CC(=O)N2CCN(c3nc(Nc4cc(C)[nH]n4)c4cccn4n3)CC2)cc1` [2-(4-((4-methoxyphenyl)acetyl)-1-piperazinyl)-N-(5-methyl-1H-pyrazol-3-yl)pyrrolo[2,1-f][1,2,4]triazin-4-amine], the 50% inhibitory concentration (IC50) is at most 5 nM.
In the case of `Cc1cc(Nc2nc(N3CCN(C(=O)COCc4ccccc4)CC3)nn3cccc23)n[nH]1` [2-(4-((benzyloxy)acetyl)-1-piperazinyl)-N-(5-methyl-1H-pyrazol-3-yl)pyrrolo[2,1-f][1,2,4]triazin-4-amine], the IC50 was at most 5 nM.
Consider `Cc1cc(Nc2nc(N3CCN(C(=O)C4Cc5ccccc54)CC3)nn3cccc23)n[nH]1` (centres unmarked) [2-(4-(bicyclo[4.2.0]octa-1,3,5-trien-7-ylcarbonyl)-1-piperazinyl)-N-(5-methyl-1H-pyrazol-3-yl)pyrrolo[2,1-f][1,2,4]triazin-4-amine], for which the concentration for half-maximal inhibition (IC50) is at most 5 nM.
The result for `Cc1cc(Nc2nc(N3CCN(C(=O)CC4CCCCC4)CC3)nn3cccc23)n[nH]1` [2-(4-(cyclohexylacetyl)-1-piperazinyl)-N-(5-methyl-1H-pyrazol-3-yl)pyrrolo[2,1-f][1,2,4]triazin-4-amine] reads at most 5 nM; that for `Cc1cc(Nc2nc(N3CCN(C(=O)c4ccccc4C#N)CC3)nn3cccc23)n[nH]1` [2-((4-(4-((5-methyl-1H-pyrazol-3-yl)amino)pyrrolo[2,1-f][1,2,4]triazin-2-yl)-1-piperazinyl)carbonyl)benzonitrile], at most 5 nM; that for `Cc1cc(Nc2nc(N3CCN(C(=O)Cc4cccc(C#N)c4)CC3)nn3cccc23)n[nH]1` [3-(2-(4-(4-((5-methyl-1H-pyrazol-3-yl)amino)pyrrolo[2,1-f][1,2,4]triazin-2-yl)-1-piperazinyl)-2-oxoethyl)benzonitrile], at most 5 nM.
For `Cc1cc(Nc2nc(N3CCN(C(=O)C4CC(=O)c5ccccc54)CC3)nn3cccc23)n[nH]1` (centres unmarked) [3-((4-(4-((5-methyl-1H-pyrazol-3-yl)amino)pyrrolo[2,1-f][1,2,4]triazin-2-yl)-1-piperazinyl)carbonyl)-1-indanone], the IC50 was at most 5 nM.
`Cc1cc(Nc2nc(N3CCN(C(=O)c4cccc(C#N)c4)CC3)nn3cccc23)n[nH]1` [3-((4-(4-((5-methyl-1H-pyrazol-3-yl)amino)pyrrolo[2,1-f][1,2,4]triazin-2-yl)-1-piperazinyl)carbonyl)benzonitrile]: the concentration for half-maximal inhibition (IC50) is at most 5 nM.
To `Cc1cc(Nc2nc(N3CCN(C(=O)[C@H](O)c4ccccc4)CC3)nn3cccc23)n[nH]1` [(1R)-2-(4-(4-((5-methyl-1H-pyrazol-3-yl)amino)pyrrolo[2,1-f][1,2,4]triazin-2-yl)-1-piperazinyl)-2-oxo-1-phenylethanol] belongs at most 5 nM; to `Cc1cc(Nc2nc(N3CCN(C(=O)[C@@H](O)c4ccccc4)CC3)nn3cccc23)n[nH]1` [(1S)-2-(4-(4-((5-methyl-1H-pyrazol-3-yl)amino)pyrrolo[2,1-f][1,2,4]triazin-2-yl)-1-piperazinyl)-2-oxo-1-phenylethanol], at most 5 nM; to `Cc1cc(Nc2nc(N3CCN(C(=O)[C@H](O)CCc4ccccc4)CC3)nn3cccc23)n[nH]1` [(2R)-1-(4-(4-((5-methyl-1H-pyrazol-3-yl)amino)pyrrolo[2,1-f][1,2,4]triazin-2-yl)-1-piperazinyl)-1-oxo-4-phenyl-2-butanol], at most 5 nM.
The result for `Cc1cc(Nc2nc(N3CCN(C(=O)[C@](C)(O)c4ccc(F)cc4)CC3)nn3cccc23)n[nH]1` [(2R)-2-(4-fluorophenyl)-1-(4-(4-((5-methyl-1H-pyrazol-3-yl)amino)pyrrolo[2,1-f][1,2,4]triazin-2-yl)-1-piperazinyl)-1-oxo-2-propanol] reads at most 5 nM; that for `Cc1cc(Nc2nc(N3CCN(C(=O)[C@@H](O)Cc4ccccc4)CC3)nn3cccc23)n[nH]1` [(2S)-1-(4-(4-((5-methyl-1H-pyrazol-3-yl)amino)pyrrolo[2,1-f][1,2,4]triazin-2-yl)-1-piperazinyl)-1-oxo-3-phenyl-2-propanol], at most 5 nM.
With `CC(=O)NC(C(=O)N1CCN(c2nc(Nc3cc(C)[nH]n3)c3cccn3n2)CC1)c1ccccc1` (centres unmarked) [N-(2-(4-(4-((5-methyl-1H-pyrazol-3-yl)amino)pyrrolo[2,1-f][1,2,4]triazin-2-yl)-1-piperazinyl)-2-oxo-1-phenylethyl)acetamide], the IC50 was at most 5 nM.
The result for `CC(=O)Nc1ccccc1C(=O)N1CCN(c2nc(Nc3cc(C)[nH]n3)c3cccn3n2)CC1` [N-(2-((4-(4-((5-methyl-1H-pyrazol-3-yl)amino)pyrrolo[2,1-f][1,2,4]triazin-2-yl)-1-piperazinyl)carbonyl)phenyl)acetamide] reads at most 5 nM; that for `CC(=O)Nc1cccc(C(=O)N2CCN(c3nc(Nc4cc(C)[nH]n4)c4cccn4n3)CC2)c1` [N-(3-((4-(4-((5-methyl-1H-pyrazol-3-yl)amino)pyrrolo[2,1-f][1,2,4]triazin-2-yl)-1-piperazinyl)carbonyl)phenyl)acetamide], at most 5 nM.
For `CC(=O)Nc1ccc(C(=O)N2CCN(c3nc(Nc4cc(C)[nH]n4)c4cccn4n3)CC2)cc1` [N-(4-((4-(4-((5-methyl-1H-pyrazol-3-yl)amino)pyrrolo[2,1-f][1,2,4]triazin-2-yl)-1-piperazinyl)carbonyl)phenyl)acetamide], the IC50 was at most 5 nM.
The result for `Cc1cc(Nc2nc(N3CCN(C(=O)c4csnn4)CC3)nn3cccc23)n[nH]1` [N-(5-methyl-1H-pyrazol-3-yl)-2-(4-(1,2,3-thiadiazol-4-ylcarbonyl)-1-piperazinyl)pyrrolo[2,1-f][1,2,4]triazin-4-amine] reads at most 5 nM; that for `Cc1cc(Nc2nc(N3CCN(C(=O)c4cnon4)CC3)nn3cccc23)n[nH]1` [N-(5-methyl-1H-pyrazol-3-yl)-2-(4-(1,2,5-oxadiazol-3-ylcarbonyl)-1-piperazinyl)pyrrolo[2,1-f][1,2,4]triazin-4-amine], at most 5 nM.
`Cc1cc(Nc2nc(N3CCN(C(=O)c4ncco4)CC3)nn3cccc23)n[nH]1` [N-(5-methyl-1H-pyrazol-3-yl)-2-(4-(1,3-oxazol-2-ylcarbonyl)-1-piperazinyl)pyrrolo[2,1-f][1,2,4]triazin-4-amine]: the concentration for half-maximal inhibition (IC50) is at most 5 nM.
On to `Cc1cc(Nc2nc(N3CCN(C(=O)c4cnco4)CC3)nn3cccc23)n[nH]1` [N-(5-methyl-1H-pyrazol-3-yl)-2-(4-(1,3-oxazol-5-ylcarbonyl)-1-piperazinyl)pyrrolo[2,1-f][1,2,4]triazin-4-amine], for which the half-inhibitory concentration (IC50) is at most 5 nM.
To `Cc1cc(Nc2nc(N3CCN(C(=O)c4cc[nH]n4)CC3)nn3cccc23)n[nH]1` [N-(5-methyl-1H-pyrazol-3-yl)-2-(4-(1H-pyrazol-3-ylcarbonyl)-1-piperazinyl)pyrrolo[2,1-f][1,2,4]triazin-4-amine] belongs at most 5 nM.
